Measurements: patent publication US4246263A, “Antiinflammatory and immunoregulatory pyrimidines, their method of use and pharmaceutical compositions” (priority 1979, dated 1981)
pIC50: −log10 of the molar value. Like-named read-outs stand apart in the source and are kept apart here.

Columns and labels:
[1] = tested on: azathioprine-sensitive, rosette-forming cells; assay: mouse E-rosette procedure (restoration of azathioprine-sensitive rosette-forming cells in adult thymectomized mice); format: in vivo, mouse (CD-1
Description: (§1) Antiinflammatory activity is reflected in the so-called rat foot edema test, in which the ability of an oral dose of the compound to inhibit an inflammatory reaction is measured, while immunoregulatory activity is assessed by the so-called mouse E-rosette procedure in which the ability of the test compound to restore erythrocyte rosette formation in thymectomized mice is measured. These tests are described in greater detail below.
As mentioned above, the immunoregulatory activity of the compounds of this invention is assessed by the mouse E-rosette procedure. In the mouse, the presence of a thymus is required for full expression of normal rosette formation with sheep erythrocytes [see for example, Bach and Dardenne, Immunol. 25, 353 (1973)]. The procedure examines the ability of a drug to restore azathioprine-sensitive, rosette-forming cells in adult thymectomized mice to the levels of normal animals. Specifically, rosette formation is examined in CD-1 mice thymectomized at 4 weeks of age and left at least 14 days post-surgery before manipulation (ATX mice). The ATX mice are dosed orally either with saline vehicle or drug. Sixteen hours later, single cell suspensions are prepared in Hanks balanced salt solution (HBSS) from the pooled spleens of three mice. To each tube is added 0.1 ml of lymphocytes (6×10^7 /ml) in HBSS and either 0.1 ml of HBSS or 0.1 ml of 40 μg/ml azathioprine in HBSS. After 90 minutes incubation at 37° C., the cells are washed 2× with 5 ml. of HBSS, made back up to 0.2 ml, and 0.2 ml of sheep red blood cells (erythrocytes) at 1.2×10^8 cells/ml. added. Then […] on hemagglutination slides and the number of rosettes counted. The ability of the test compound to restore the number of azathioprine sensitive rosetting cells to normal or higher is determined. In normal mice 42%±12% azathioprine sensitivity is found. In adult thymectomized mice 3±3% azathioprine sensitivity is found.

mice = assay: acute oral toxicity in mice; format: in vivo
Description: (§2) Its oral LD50 in mice is greater than 100 mg./kg. In the rat, it also has an LD50 value greater than 1000 mg./kg. […] No changes in clinical chemistry, hematology or body weight were observed.

[2] = tested on: humoral immune response to sheep red blood cells; assay: humoral immune response of mice to sheep red blood cells; format: in vivo; details: for effect on humoral immune response to sheep red blood cells (immunosuppressive drugs): same conditions, dose of the drugs not given
[3] = tested on: ultraviolet light induced erythema; assay: ultraviolet light induced erythema procedure; format: in vivo; details: for suppression of erythema (NSAI drugs): ultraviolet light induced erythema, dose not given
[4] = tested on: carrageenin-induced rat foot edema; assay: carrageenin-induced rat foot edema test; format: in vivo, rat (male albino)
Description: as §1
As mentioned above, the antiinflammatory activity of the compounds of the present invention is determined in the standard carrageenin-induced rat foot edema test [described by C. A. Winter et al., Proc. Soc. Exp. Biol. 111, p. 544 (1962)]. In this test, antiinflammatory activity is determined as the inhibition of edema formation in the hind paw of male albino rats (weight 150-190 g.) in response to a subplantar injection of carrageenin. The carrageenin is injected as a 1 percent aqueous suspension (0.05 ml.) 1 hour after oral administration of the drug. Edema formation is then assessed 3 hours after the carrageenin injection by measuring the volume of the injected paw initially as well as at the 3 hour mark. The increase in volume three hours after carrageenin injection constitutes the individual response. Compounds are considered active if the response between the drug-treated animals (six rats/group) and the control group (i.e., animals receiving the vehicle alone) is deemed to be significant on comparison with results afforded by standard compounds like acetylsalicylic acid at 100 mg./kg […] phenylbutazone at 33 mg./kg., both by the oral route of administration. The activity of the compound under test is expressed as the % inhibition of edema at a given oral dose. The ability of compounds to inhibit edema at various oral dosages (mg./kg., i.e. mg. of drug/kg. of rat body weight) is shown in Table II.

[5] = tested on: polyarthritis produced by injection of complete Freund's adjuvant; assay: polyarthritis produced by injection of complete Freund's adjuvant in Wistar-Lewis rats; format: in vivo, rat (Wistar-Lewis); details: for effect on weight loss induced by adjuvant disease: rat, in vivo; for suppression of primary and secondary responses: reference NSAI drugs, dose not given
Excerpt: This pattern of antiarthritic activity again distinguishes 4-(2-hydroxyethylthiomethyl)pyridine /from the classical NSAI drugs.

[6] = tested on: prostaglandin synthesis in MC5-5 cells; assay: prostaglandin synthesis in MC5-5 cells in vitro; format: cell-based; details: read-out: IC50, inhibition of prostaglandin synthesis in MC5-5 cells
rat = assay: acute toxicity in the rat; format: in vivo; details: rats
Description: as §2

[7] = acute toxicity in the rat; format: in vivo; details: rat, in vivo, po
Description: as §2

water solubility = format: physicochemical; details: dihydrogen phosphate salt
rats = details: oral
[8] = oral dosage of 1 mg./kg., thymectomized mice
[9] = oral dosage of 33 mg./kg., 3 hours after carrageenin

In the case of `CC(O)C(C)SCc1ccncc1` (stereo not shown), the “% Rosetting Cells” value [1, 8] was 63%.

For `Oc1ccccc1SCc1ccncc1`, the “% Rosetting Cells” value [1, 8] was 59%.

For `OCC(SCc1ccncc1)c1ccccc1` (stereo not shown), the “% Rosetting Cells” value [1, 8] was 33%.

In the case of `OC(CSCc1ccncc1)c1ccccc1` (stereo not shown), the “% Rosetting Cells” value ([1]; oral, 10 mg./kg.) was 50%.

With `COc1ccc(C(O)CSCc2ccncc2)cc1` (stereo not shown) the “% Rosetting Cells” value [1, 8] was 43%.

In the case of `O=[N+]([O-])c1ccc(C(O)CSCc2ccncc2)cc1` (stereo not shown), the “% Rosetting Cells” value [1, 8] was 40%.

For `CC(SCc1ccncc1)C(O)c1ccccc1` (stereo not shown), the “% Rosetting Cells” value [1, 8] was 33%.

In the case of `CC(C)(O)CSCc1ccncc1`, the “% Rosetting Cells” value [1, 8] was 39%.

In the case of `OCCSCc1ccncc1` [4-(2-Hydroxyethylthiomethyl)pyridine], the “acute toxicity relative to levamisole” value (mice; mice) was “less acutely toxic than levamisole”, the LD50 (mice; mouse, in vivo, po) was “greater than 100 mg./kg” and the “effect on humoral immune response to sheep red blood cells” value ([2]; four daily oral doses, 33 mg./kg.) was “did not affect the humoral immune response”. The “% Rosetting Cells” value ([1]; oral, 0.01 mg./kg.) was 16%, the “activity in ultraviolet light induced erythema procedure” value ([3]; 33 mg./kg. p.o.) was “lack of activity” and the “% Inhibition of Edema” value [4, 9] was 52%. For the same molecule, the “% Inhibition of Edema” value ([4]; oral, 3.3 mg./kg.) was 16%, the “% Inhibition of Edema” value ([4]; oral, 10 mg./kg.) was 29% and the ED50 ([5]; Rattus norvegicus, po) was about 33 mg/kg. The “effect on the rapid onset, acute inflammation of the adjuvant-injected foot” value ([5]; day 4 or day 16) was “no effects”, the “antiarthritic effect on the secondary response (spread of disease to the uninjected foot)” value ([5]; p.o.) was “selective for the slow onset, lymphoid cell mediated, secondary response” and the “protection from adjuvant polyarthritis” value ([5]; p.o.) was “dose-related protection”. The “effect on weight loss induced by adjuvant disease” value (from here on “effect on weight loss induced”) [5] was “does not affect the weight loss”, the pIC50 [6] was under 4.00 and the “acute toxicity relative to levamisole” value (rat) was “less acutely toxic than levamisole”. The LD50 [7] was over 1000 mg/kg.

In the case of `O=P(O)(O)O.OCCSCc1ccncc1` [4-(2-hydroxyethylthiomethyl)pyridinium dihydrogen phosphate], the water solubility (water solubility) was “excellent water solubility”.

With `OCCSCc1ccncn1` [4-(2-hydroxyethylthiomethyl)pyrimidine, 4-(2-Hydroxyethylthiomethyl)pyrimidine] the “restoration of rosette formation” value ([1]; oral dosage of 1 mg./kg., pyrimidine) was 38% and the “% Inhibition of Edema” value [4, 9] was 11%.

With `Sc1ncnc2nc[nH]c12` [6-mercaptopurine] the “effect on humoral immune response to sheep red blood cells (immunosuppressive drugs)” value (from here on “effect … (immunosuppressive drugs)”) [2] was “profoundly inhibitory”.

With `OCCCSCc1ccncc1` [CH2 CH2 CH2, H, 1, 4-(3-Hydroxypropylthiomethyl)pyridine] the “% Rosetting Cells” value [1, 8] was 36%.

For `COCCSCc1ccncc1` [CH2 CH2, CH3, 1, 4-(2-Methoxyethylthiomethyl)pyridine], the “% Rosetting Cells” value [1, 8] was 33%.

For `OCCSCCc1ccncc1` [CH2 CH2, H, 2, 4-[2-(2-Hydroxyethylthio)ethyl]pyridine], the “% Rosetting Cells” value [1, 8] was 50%.

With `CC(=O)OCCSCc1ccncc1` [CH2 CH2, drawing 27, 1, 4-(2-Acetoxyethylthiomethyl)pyridine] the “% Rosetting Cells” value [1, 8] was 40%.

With `CN1C(C(=O)Nc2ccccn2)=C(O)c2ccccc2S1(=O)=O` [Piroxicam, reference compound] the “effect on weight loss induced” value [5] was “partially preventing the weight loss” and the “suppression of primary and secondary responses” value [5] was “effective in suppressing both the primary and secondary responses”.

With `CC(=O)Oc1ccccc1C(=O)O` [aspirin, acetylsalicylic acid] the ulcerogenic effects (rats; 50 mg./kg.) was “distinct ulcerogenic effects”.

With `Cn1cnc([N+](=O)[O-])c1Sc1ncnc2nc[nH]c12` [azathioprine] the “effect … (immunosuppressive drugs)” value [2] was “profoundly inhibitory”.

In the case of `O=P1(N(CCCl)CCCl)NCCCO1` (stereo not shown) [cyclophosphamide], the “effect … (immunosuppressive drugs)” value [2] was “profoundly inhibitory”.

With `OCC(O)CSCc1ccncc1` (stereo not shown) [drawing 17] the “% Rosetting Cells” value [1, 8] was 57%.

In the case of `CC(CO)SCc1ccncc1` (stereo not shown) [drawing 19], the “% Rosetting Cells” value [1, 8] was 40%.

For `CC(O)CSCc1ccncc1` (stereo not shown) [drawing 21], the “% Rosetting Cells” value [1, 8] was 56%.

In the case of `OCC(O)CSCc1ccncc1` (stereo not shown) [drawing 29], the “% Inhibition of Edema” value [4, 9] was 17%.

For `CC(CO)SCc1ccncc1` (stereo not shown) [drawing 30], the “% Inhibition of Edema” value [4, 9] was 20%.

In the case of `CC(O)CSCc1ccncc1` (stereo not shown) [drawing 31], the “% Inhibition of Edema” value [4, 9] was 5%.

For `COc1ccc2c(c1)c(CC(=O)O)c(C)n2C(=O)c1ccc(Cl)cc1` [indomethacin], the ulcerogenic effects (rats; 10 mg./kg.) was “distinct ulcerogenic effects” and the “suppression of erythema (NSAI drugs)” value [3] was “clearcut suppression of erythema”.

With `CN(Cc1cnc2nc(N)nc(N)c2n1)c1ccc(C(=O)N[C@@H](CCC(=O)O)C(=O)O)cc1` [methotrexate] the “effect … (immunosuppressive drugs)” value [2] was “profoundly inhibitory”.

In the case of `CCCCC1C(=O)N(c2ccccc2)N(c2ccccc2)C1=O` [phenylbutazone, reference compound], the “suppression of erythema (NSAI drugs)” value [3] was “clearcut suppression of erythema”, the “effect on weight loss induced” value [5] was “partially preventing the weight loss” and the “suppression of primary and secondary responses” value [5] was “effective in suppressing both the primary and secondary responses”.
